Reference: patent US11254668B2, “Pyrazolo[1,5-A]pyrazin-4-yl and related derivatives” (Pfizer Inc., priority 2017, dated 2022)

What was measured:
Type in all cases: biochemical
[1] = molecular target: JAK3 (Homo sapiens (Human), UniProt P52333); assay: JAK Caliper Enzyme Assay at 1 mM ATP, JAK3
How it was run: (§1)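 Recombinant human kinase domains phosphorylated a fluorescent synthetic peptide at room temperature, with enzyme level and time tuned to 20% to 30% conversion; EDTA stop buffer ended reactions. Mobility-shift separation gave percent product from peak heights, normalised to DMSO and positive controls, and IC50s came from concentration–effect curves.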

[2] = molecular target: JAK2 (Homo sapiens (Human), UniProt O60674); assay: JAK Caliper Enzyme Assay at 1 mM ATP, JAK2
How it was run: (§2)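 Mobility-shift microfluidic read-out: substrate and phosphopeptide peaks separated, % conversion = product/(product+substrate). Reaction used recombinant human kinase domain, synthetic peptide, 1 mM ATP, RT incubation to 20–30% turnover, quenched with EDTA. Percent effect versus DMSO and positive controls, plotted against concentration.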

[3] = molecular target: JAK1 (Homo sapiens (Human), UniProt P23458); assay: JAK Caliper Enzyme Assay at 1 mM ATP, JAK1
How it was run: as §1

[4] = molecular target: TYK2 (Homo sapiens (Human), UniProt P29597); assay: JAK Caliper Enzyme Assay at 1 mM ATP, TYK2
How it was run: as §2

Sequence of JAK1 (P23458 875-1153): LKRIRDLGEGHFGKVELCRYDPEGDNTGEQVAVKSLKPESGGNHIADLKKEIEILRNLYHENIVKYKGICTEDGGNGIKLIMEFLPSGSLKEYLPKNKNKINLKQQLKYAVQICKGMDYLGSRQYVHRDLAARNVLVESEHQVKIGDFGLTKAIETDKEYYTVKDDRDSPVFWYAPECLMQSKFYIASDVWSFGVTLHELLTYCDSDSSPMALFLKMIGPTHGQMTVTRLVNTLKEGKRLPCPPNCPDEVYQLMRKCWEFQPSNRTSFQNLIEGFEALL
Sequence of JAK2 (O60674 849-1124): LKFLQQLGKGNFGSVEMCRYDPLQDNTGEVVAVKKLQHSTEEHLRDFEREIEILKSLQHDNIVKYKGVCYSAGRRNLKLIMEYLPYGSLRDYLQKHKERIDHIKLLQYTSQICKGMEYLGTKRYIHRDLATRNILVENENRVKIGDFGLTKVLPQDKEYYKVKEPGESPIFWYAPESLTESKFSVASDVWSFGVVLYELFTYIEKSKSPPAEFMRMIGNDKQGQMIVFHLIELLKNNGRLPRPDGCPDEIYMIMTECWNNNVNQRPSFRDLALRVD
Sequence of TYK2 (P29597 897-1176): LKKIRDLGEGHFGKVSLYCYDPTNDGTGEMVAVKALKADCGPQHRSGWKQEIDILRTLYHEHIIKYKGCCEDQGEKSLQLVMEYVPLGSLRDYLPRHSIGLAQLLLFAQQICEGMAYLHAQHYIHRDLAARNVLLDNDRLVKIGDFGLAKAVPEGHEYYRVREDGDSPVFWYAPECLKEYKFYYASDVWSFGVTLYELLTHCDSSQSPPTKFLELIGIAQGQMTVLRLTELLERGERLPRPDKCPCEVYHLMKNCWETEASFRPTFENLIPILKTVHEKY
Sequence of JAK3 (P52333 822-1111): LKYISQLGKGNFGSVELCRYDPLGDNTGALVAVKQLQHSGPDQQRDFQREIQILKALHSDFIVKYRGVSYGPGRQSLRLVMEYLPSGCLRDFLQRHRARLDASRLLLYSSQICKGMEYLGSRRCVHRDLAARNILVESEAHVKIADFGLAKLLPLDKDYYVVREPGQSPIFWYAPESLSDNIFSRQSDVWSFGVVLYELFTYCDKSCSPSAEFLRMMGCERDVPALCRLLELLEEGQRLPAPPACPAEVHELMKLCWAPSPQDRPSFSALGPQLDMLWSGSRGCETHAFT

| IC50 [1] | IC50 [2] | IC50 [3] | IC50 [4] | SMILES |
| --- | --- | --- | --- | --- |
| > 10 µM | 0.287 µM | 2.26 µM | 0.025 µM | Cn1ccc(-c2cc(-c3cnn(C4(CC#N)CN(S(C)(=O)=O)C4)n3)c3cccnc3c2)n1 [Example 311, [3-{4-[7-(1-methyl-1H-pyrazol-3-yl)quinolin-5-yl]-2H-1,2,3-triazol-2-yl}-1-(methylsulfonyl)azetidin-3-yl]acetonitrile] |
| > 10 µM | 0.246 µM | 1.64 µM | 0.031 µM | Cn1ccc(-c2cc(-c3cnn([C@]4(CC#N)C[C@@H](C#N)C4)n3)c3cccnc3c2)n1 [Example 312, trans-3-(cyanomethyl)-3-{4-[7-(1-methyl-1H-pyrazol-3-yl)quinolin-5-yl]-2H-1,2,3-triazol-2-yl}cyclobutanecarbonitrile] |
| 5.47 µM | 0.079 µM | 0.486 µM | 0.025 µM | Cn1ccc(-c2cc(-c3cnn([C@]4(CC#N)C[C@H](C#N)C4)n3)c3cccnc3c2)n1 [Example 313, cis-3-(cyanomethyl)-3-{4-[7-(1-methyl-1H-pyrazol-3-yl)quinolin-5-yl]-2H-1,2,3-triazol-2-yl}cyclobutanecarbonitrile] |
| > 10 µM | 0.39 µM | 1.15 µM | 0.032 µM | CS(=O)(=O)N1CC(CC#N)(n2ncc(-c3cc(-c4cn[nH]c4)cc4ncccc34)n2)C1 [Example 314, [1-(methylsulfonyl)-3-{4-[7-(1H-pyrazol-4-yl)quinolin-5-yl]-2H-1,2,3-triazol-2-yl}azetidin-3-yl]acetonitrile] |
| 2.73 µM | 0.048 µM | 0.122 µM | 0.008 µM | N#CC[C@]1(n2ncc(-c3cc(-c4cn[nH]c4)cc4ncccc34)n2)C[C@@H](C#N)C1 [Example 316, cis-3-(cyanomethyl)-3-{4-[7-(1H-pyrazol-4-yl)quinolin-5-yl]-2H-1,2,3-triazol-2-yl}cyclobutanecarbonitrile] |
| > 10 µM | 0.838 µM | 2.83 µM | 0.057 µM | N#CC[C@]1(n2ncc(-c3cc(-c4c[nH]nc4CO)cc4ncccc34)n2)C[C@H](C#N)C1 [Example 317, trans-3-(cyanomethyl)-3-(4-{7-[3-(hydroxymethyl)-1H-pyrazol-4-yl]quinolin-5-yl}-2H-1,2,3-triazol-2-yl)cyclobutanecarbonitrile] |
| 9.27 µM | 0.137 µM | 0.54 µM | 0.017 µM | N#CC[C@]1(n2ncc(-c3cc(-c4c[nH]nc4CO)cc4ncccc34)n2)C[C@@H](C#N)C1 [Example 318, cis-3-(cyanomethyl)-3-(4-{7-[3-(hydroxymethyl)-1H-pyrazol-4-yl]quinolin-5-yl}-2H-1,2,3-triazol-2-yl)cyclobutanecarbonitrile] |
| > 10 µM | 0.53 µM | 1.25 µM | 0.016 µM | N#CC[C@]1(n2ncc(-c3cc(-c4cn[nH]c4N)cc4ncccc34)n2)C[C@H](C#N)C1 [Example 319, trans-3-{4-[7-(5-amino-1H-pyrazol-4-yl)quinolin-5-yl]-2H-1,2,3-triazol-2-yl}-3-(cyanomethyl)cyclobutanecarbonitrile] |
| 8.03 µM | 0.077 µM | 0.256 µM | 0.005 µM | N#CC[C@]1(n2ncc(-c3cc(-c4cn[nH]c4N)cc4ncccc34)n2)C[C@@H](C#N)C1 [Example 320, cis-3-{4-[7-(5-amino-1H-pyrazol-4-yl)quinolin-5-yl]-2H-1,2,3-triazol-2-yl}-3-(cyanomethyl)cyclobutanecarbonitrile] |
| > 10 µM | 7.69 µM | > 10 µM | 0.844 µM | C[C@]1(C#N)C[C@](CC#N)(n2ncc(-c3cc(-c4c[nH]nc4N)cc4ncccc34)n2)C1 [Example 321, trans-3-{4-[7-(3-amino-1H-pyrazol-4-yl)quinolin-5-yl]-2H-1,2,3-triazol-2-yl}-3-(cyanomethyl)-1-methylcyclobutanecarbonitrile] |
| > 10 µM | 0.959 µM | 2.59 µM | 0.074 µM | C[C@]1(C#N)C[C@@](CC#N)(n2ncc(-c3cc(-c4cn[nH]c4N)cc4ncccc34)n2)C1 [Example 322, cis-3-{4-[7-(5-amino-1H-pyrazol-4-yl)quinolin-5-yl]-2H-1,2,3-triazol-2-yl}-3-(cyanomethyl)-1-methylcyclobutanecarbonitrile] |
| > 10 µM | 0.244 µM | 2.84 µM | 0.069 µM | Cn1cc(-c2cc(-c3cnn(C4(CC#N)CN(S(C)(=O)=O)C4)n3)c3cccnc3c2)cn1 [Example 323, [3-{4-[7-(1-methyl-1H-pyrazol-4-yl)quinolin-5-yl]-2H-1,2,3-triazol-2-yl}-1-(methylsulfonyl)azetidin-3-yl]acetonitrile] |
| 9.93 µM | 0.144 µM | 1.42 µM | 0.03 µM | Cn1cc(-c2cc(-c3cnn([C@]4(CC#N)C[C@@H](C#N)C4)n3)c3cccnc3c2)cn1 [Example 324, trans-3-(cyanomethyl)-3-{4-[7-(1-methyl-1H-pyrazol-4-yl)quinolin-5-yl]-2H-1,2,3-triazol-2-yl}cyclobutanecarbonitrile] |
| 2.15 µM | 0.032 µM | 0.319 µM | 0.011 µM | Cn1cc(-c2cc(-c3cnn(C4(CC#N)CC(C#N)C4)n3)c3cccnc3c2)cn1 (stereo not drawn) [Example 325, cis-3-(cyanomethyl)-3-{4-[7-(1-methyl-1H-pyrazol-4-yl)quinolin-5-yl]-2H-1,2,3-triazol-2-yl}cyclobutanecarbonitrile] |
| 4.17 µM | 0.045 µM | 0.332 µM | 0.009 µM | N#CC[C@]1(n2ncc(-c3cc(-c4cnn(CCO)c4)cc4ncccc34)n2)C[C@H](C#N)C1 [Example 326, trans-3-(cyanomethyl)-3-(4-{7-[1-(2-hydroxyethyl)-1H-pyrazol-4-yl]quinolin-5-yl}-2H-1,2,3-triazol-2-yl)cyclobutanecarbonitrile] |
| 3.29 µM | 0.052 µM | 0.262 µM | 0.02 µM | N#CC[C@]1(n2ncc(-c3cc(-c4cnn(CCO)c4)cc4ncccc34)n2)C[C@@H](C#N)C1 [Example 327, cis-3-(cyanomethyl)-3-(4-{7-[1-(2-hydroxyethyl)-1H-pyrazol-4-yl]quinolin-5-yl}-2H-1,2,3-triazol-2-yl)cyclobutanecarbonitrile] |
| > 10 µM | 0.666 µM | 7 µM | 0.071 µM | Cn1cc(-c2cc(-c3cnn(C4(CC#N)CC(C#N)C4)n3)c3cccnc3c2)c(CO)n1 (stereo not drawn) [Example 329, trans-3-(cyanomethyl)-3-(4-{7-[3-(hydroxymethyl)-1-methyl-1H-pyrazol-4-yl]quinolin-5-yl}-2H-1,2,3-triazol-2-yl)cyclobutanecarbonitrile] |
| > 10 µM | 1.62 µM | 7.7 µM | 0.143 µM | Cn1ncc(-c2cc(-c3cnn([C@]4(CC#N)C[C@@H](C#N)C4)n3)c3cccnc3c2)c1N [Example 330, trans-3-{4-[7-(5-amino-1-methyl-1H-pyrazol-4-yl)quinolin-5-yl]-2H-1,2,3-triazol-2-yl}-3-(cyanomethyl)cyclobutanecarbonitrile] |
| > 10 µM | 0.74 µM | 3.7 µM | 0.115 µM | Cn1ncc(-c2cc(-c3cnn([C@]4(CC#N)C[C@H](C#N)C4)n3)c3cccnc3c2)c1N [Example 331, cis-3-{4-[7-(5-amino-1-methyl-1H-pyrazol-4-yl)quinolin-5-yl]-2H-1,2,3-triazol-2-yl}-3-(cyanomethyl)cyclobutanecarbonitrile] |
| > 10 µM | 4.71 µM | > 10 µM | 0.736 µM | Cn1ncc(-c2cc(-c3cnn([C@]4(CC#N)C[C@@H](C#N)C4)n3)c3cccnc3c2)c1C(N)=O [Example 334, 4-(5-{2-[cis-3-cyano-1-(cyanomethyl)cyclobutyl]-2H-1,2,3-triazol-4-yl}quinolin-7-yl)-1-methyl-1H-pyrazole-5-carboxamide] |
| 3.58 µM | 0.032 µM | 0.326 µM | 0.008 µM | Cc1nc(-c2cc(-c3cnn([C@]4(CC#N)C[C@H](C#N)C4)n3)c3cccnc3c2)c[nH]1 [Example 336, cis-3-(cyanomethyl)-3-{4-[7-(2-methyl-1H-imidazol-4-yl)quinolin-5-yl]-2H-1,2,3-triazol-2-yl}cyclobutanecarbonitrile] |
| > 10 µM | 0.243 µM | 2.91 µM | 0.033 µM | Cc1nc(-c2cc(-c3cnn([C@]4(CC#N)C[C@@H](C#N)C4)n3)c3cccnc3c2)c[nH]1 [Example 337, trans-3-(cyanomethyl)-3-{4-[7-(2-methyl-1H-imidazol-4-yl)quinolin-5-yl]-2H-1,2,3-triazol-2-yl}cyclobutanecarbonitrile] |
| > 10 µM | > 10 µM | > 10 µM | 2.46 µM | Cn1nncc1-c1cc(-c2cnn([C@]3(CC#N)C[C@H](C#N)C3)n2)c2cccnc2c1 [Example 338, cis-3-(cyanomethyl)-3-{4-[7-(1-methyl-1H-1,2,3-triazol-5-yl)quinolin-5-yl]-2H-1,2,3-triazol-2-yl}cyclobutanecarbonitrile] |
| > 10 µM | 0.146 µM | 8.37 µM | 0.036 µM | Cn1cc(-c2cc(-c3cnn([C@]4(CC#N)C[C@@H](C#N)C4)n3)c3cccnc3c2)nn1 [Example 339, trans-3-(cyanomethyl)-3-{4-[7-(1-methyl-1H-1,2,3-triazol-4-yl)quinolin-5-yl]-2H-1,2,3-triazol-2-yl}cyclobutanecarbonitrile] |
